The record followed here is patent US20250270172A1, “Pyrimidine Derivatives As Modulators of the 5-HT2A Serotonin Receptor Useful For The Treatment of Disorders Related Thereto” (Arena Pharmaceuticals, Inc., priority 2020, published 2025).

The assay deals with 5-HT2A (Homo sapiens (Human), UniProt P28223). Description: Radioligand binding assay, [^3H]5-HT competition, 5-HT2A. Particulars: [^3H]5-HT radioligand, membranes of HEK293 cells expressing recombinant 5-HT2A; Ki from IC50 by Cheng-Prusoff; read-out: 5-HT2A serotonin binding Ki value.
5-HT2A, sequence (P28223 whole entry): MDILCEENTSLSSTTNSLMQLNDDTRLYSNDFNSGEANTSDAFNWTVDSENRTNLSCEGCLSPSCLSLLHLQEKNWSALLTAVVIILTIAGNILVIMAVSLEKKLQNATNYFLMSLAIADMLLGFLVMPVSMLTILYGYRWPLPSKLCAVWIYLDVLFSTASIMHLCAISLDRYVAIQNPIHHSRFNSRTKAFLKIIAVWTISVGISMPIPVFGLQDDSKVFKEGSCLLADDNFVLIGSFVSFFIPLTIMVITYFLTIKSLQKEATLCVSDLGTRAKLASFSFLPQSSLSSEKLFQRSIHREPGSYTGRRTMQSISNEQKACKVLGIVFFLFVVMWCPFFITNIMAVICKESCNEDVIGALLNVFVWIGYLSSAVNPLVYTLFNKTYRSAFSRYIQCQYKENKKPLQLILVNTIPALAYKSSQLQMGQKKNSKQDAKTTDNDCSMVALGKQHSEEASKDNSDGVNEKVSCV
In the case of `Cc1ncoc1C(=O)Nc1ccc(OCCN2CCOCC2)c(-c2c(C)ncnc2C)c1` [Compound 393, N-(3-(4,6-dimethylpyrimidin-5-yl)-4-(2-morpholinoethoxy)phenyl)-4-methyloxazole-5-carboxamide], the Ki (commonly the dissociation constant of the complex between target and ligand, obtained from inhibition or displacement) amounted to 0.0112 µM.

As to `Cc1ncnc(C)c1-c1cc(NC(=O)c2ccnn2C)ccc1OCCN1CCOCC1` [Compound 394, N-(3-(4,6-dimethylpyrimidin-5-yl)-4-(2-morpholinoethoxy)phenyl)-1-methyl-1H-pyrazole-5-carboxamide], the Ki stood at 0.013 µM.

As to `CCCC(=O)Nc1ccc(OC2CNC2)c(-c2c(C)ncnc2C)c1` [Compound 397, N-(4-(azetidin-3-yloxy)-3-(4,6-dimethylpyrimidin-5-yl)phenyl) butyramide], the Ki amounted to 0.00859 µM.

For the molecule `Cc1ncnc(C)c1-c1cc(NC(=O)c2ccnn2C)ccc1OC1CNC1` [Compound 399, N-(4-(azetidin-3-yloxy)-3-(4,6-dimethylpyrimidin-5-yl)phenyl)-1-methyl-1H-pyrazole-5-carboxamide], the Ki was determined as 0.0128 µM.

As to `CCOC1CC1C(=O)Nc1ccc(OCCN2CCOCC2)c(-c2c(C)ncnc2C)c1` (centres unmarked) [Compound 401, N-(3-(4,6-dimethylpyrimidin-5-yl)-4-(2-morpholinoethoxy)phenyl)-2-ethoxycyclopropane-1-carboxamide], the Ki came out at 0.0309 µM.

Turning to `Cc1ncnc(C)c1-c1cc(NC(=O)c2c(F)cnn2C)ccc1OC1CNC1` [Compound 402, N-(4-(azetidin-3-yloxy)-3-(4,6-dimethylpyrimidin-5-yl)phenyl)-4-fluoro-1-methyl-1H-pyrazole-5-carboxamide], the Ki amounted to 0.00287 µM.

`Cc1ncnc(C)c1-c1cc(NC(=O)C2CC2)ccc1O[C@@H]1CCNC1` [Compound 403, N-[3-(4,6-dimethylpyrimidin-5-yl)-4-[(3R)-pyrrolidin-3-yl]oxy-phenyl]cyclopropanecarboxamide]: the Ki stood at 0.0249 µM.

For the molecule `Cc1ncnc(C)c1-c1cc(NC(=O)C2CC2)ccc1O[C@H]1CCNC1` [Compound 404, (S)—N-(3-(4,6-dimethylpyrimidin-5-yl)-4-(pyrrolidin-3-yloxy)phenyl)cyclopropanecarboxamide], the Ki was 0.0692 µM.

Consider `Cc1ncnc(C)c1-c1cc(NC(=O)C2CC2)ccc1OC[C@H]1CCN1` [Compound 405, N-[4-[[(2R)-azetidin-2-yl]methoxy]-3-(4,6-dimethylpyrimidin-5-yl)phenyl]cyclopropanecarboxamide], for which the Ki was determined as 0.0524 µM.

As for `Cc1ncnc(C)c1-c1cc(NC(=O)C2CC2)ccc1OC[C@@H]1CCN1` [Compound 406, (S)—N-(4-(azetidin-2-ylmethoxy)-3-(4,6-dimethylpyrimidin-5-yl)phenyl)cyclopropanecarboxamide], the inhibition constant Ki is 0.057 µM.

Turning to `Cc1ncnc(C)c1-c1cc(NC(=O)C2CC2)ccc1OC[C@@H]1CCCN1` [Compound 407, N-[3-(4,6-dimethylpyrimidin-5-yl)-4-[[(2S)-pyrrolidin-2-yl]methoxy]phenyl]cyclopropanecarboxamide], the Ki was determined as 0.168 µM.

Take `Cc1ncnc(C)c1-c1cc(NC(=O)C2CC2)ccc1OC[C@H]1CCCN1` [Compound 408, (R)—N-(3-(4,6-dimethylpyrimidin-5-yl)-4-(pyrrolidin-2-ylmethoxy)phenyl)cyclopropanecarboxamide]: the Ki came to 0.0299 µM.

In the case of `Cc1ncnc(C)c1-c1cc(NC(=O)[C@H]2C[C@H]2F)ccc1O[C@@H]1CCCNC1` [Compound 410, (1R,2R)—N-(3-(4,6-dimethylpyrimidin-5-yl)-4-(((R)-piperidin-3-yl)oxy)phenyl)-2-fluorocyclopropane-1-carboxamide], the inhibition constant Ki was 0.0374 µM.

For `Cc1ncnc(C)c1-c1cc(NC(=O)[C@@H]2C[C@@H]2F)ccc1O[C@@H]1CCCNC1` [Compound 411, (1S,2S)—N-(3-(4,6-dimethylpyrimidin-5-yl)-4-(((R)-piperidin-3-yl)oxy)phenyl)-2-fluorocyclopropane-1-carboxamide], the Ki is 0.0128 µM.

For `Cc1ncsc1C(=O)Nc1ccc(O[C@@H]2CCCNC2)c(-c2c(C)ncnc2C)c1` [Compound 412, (R)—N-(3-(4,6-dimethylpyrimidin-5-yl)-4-(piperidin-3-yloxy)phenyl)-4-methylthiazole-5-carboxamide], the Ki was 0.02 µM.

Take `Cc1nc(C)c(C(=O)Nc2ccc(O[C@@H]3CCCNC3)c(-c3c(C)ncnc3C)c2)s1` [Compound 413, (R)—N-(3-(4,6-dimethylpyrimidin-5-yl)-4-(piperidin-3-yloxy)phenyl)-2,4-dimethylthiazole-5-carboxamide]: the inhibitory constant (Ki) was 0.255 µM.

Regarding `Cc1cnoc1C(=O)Nc1ccc(O[C@@H]2CCCNC2)c(-c2c(C)ncnc2C)c1` [Compound 414, (R)—N-(3-(4,6-dimethylpyrimidin-5-yl)-4-(piperidin-3-yloxy)phenyl)-4-methylisoxazole-5-carboxamide], the Ki is 0.091 µM.

As to `Cc1ncoc1C(=O)Nc1ccc(O[C@@H]2CCCNC2)c(-c2c(C)ncnc2C)c1` [Compound 415, (R)—N-(3-(4,6-dimethylpyrimidin-5-yl)-4-(piperidin-3-yloxy)phenyl)-4-methyloxazole-5-carboxamide], the Ki turned out to be 0.101 µM.

On to `Cc1ncnc(C)c1-c1cc(NC(=O)c2cccn2C)ccc1O[C@@H]1CCCNC1` [Compound 416, (R)—N-(3-(4,6-dimethylpyrimidin-5-yl)-4-(piperidin-3-yloxy)phenyl)-1-methyl-1H-pyrrole-2-carboxamide], for which the Ki was 0.0453 µM.

With `Cc1ncnc(C)c1-c1cc(NC(=O)c2ccnn2C)ccc1O[C@@H]1CCCNC1` [Compound 417, (R)—N-(3-(4,6-dimethylpyrimidin-5-yl)-4-(piperidin-3-yloxy)phenyl)-1-methyl-1H-pyrazole-5-carboxamide], the Ki was 0.0403 µM.

On to `Cc1ncnc(C)c1-c1cc(NC(=O)C2CC2)ccc1O[C@@H]1CCCNC1` [Compound 418, (R)—N-(3-(4,6-dimethylpyrimidin-5-yl)-4-(piperidin-3-yloxy)phenyl)cyclopropanecarboxamide], for which the inhibition constant (Ki) amounted to 0.00729 µM.

Regarding `Cc1ncnc(C)c1-c1cc(NC(=O)C2CC2)ccc1O[C@H]1CCCNC1` [Compound 419, (S)—N-(3-(4,6-dimethylpyrimidin-5-yl)-4-(piperidin-3-yloxy)phenyl)cyclopropanecarboxamide], the Ki is 0.443 µM.

Regarding `Cc1ncnc(C)c1-c1cc(NC(=O)C2CC2)ccc1OC[C@@H]1CCCCN1` [Compound 420, N-[3-(4,6-dimethylpyrimidin-5-yl)-4-[[(2S)-2-piperidyl]methoxy]phenyl]cyclopropanecarboxamide], the Ki came out at 0.0927 µM.

Regarding `Cc1ncnc(C)c1-c1cc(NC(=O)C2CC2)ccc1OC[C@H]1CCCCN1` [Compound 421], the Ki came to 0.00941 µM.

Take `Cc1ncnc(C)c1-c1cc(NC(=O)[C@@H]2C[C@H]2F)ccc1OC[C@H]1CCCCN1` [Compound 422, (1S,2R)—N-[3-(4,6-dimethylpyrimidin-5-yl)-4-[[(2R)-2-piperidyl]methoxy]phenyl]-2-fluoro-cyclopropanecarboxamide]: the Ki is 0.00458 µM.

For `Cc1ncnc(C)c1-c1cc(NC(=O)[C@H]2C[C@H]2F)ccc1OC[C@H]1CCCCN1` [Compound 423, (1R,2R)—N-(3-(4,6-dimethylpyrimidin-5-yl)-4-(((R)-piperidin-2-yl)methoxy)phenyl)-2-fluorocyclopropane-1-carboxamide], the Ki came to 0.0162 µM.

Regarding `Cc1ncnc(C)c1-c1cc(NC(=O)[C@@H]2C[C@@H]2F)ccc1OC[C@H]1CCCCN1` [Compound 424, (1S,2S)—N-(3-(4,6-dimethylpyrimidin-5-yl)-4-(((R)-piperidin-2-yl)methoxy)phenyl)-2-fluorocyclopropane-1-carboxamide], the Ki was determined as 0.0125 µM.

With `Cc1ncsc1C(=O)Nc1ccc(OC[C@H]2CCCCN2)c(-c2c(C)ncnc2C)c1` [Compound 425, (R)—N-(3-(4,6-dimethylpyrimidin-5-yl)-4-(piperidin-2-ylmethoxy)phenyl)-4-methylthiazole-5-carboxamide], the Ki came to 0.0438 µM.

Take `Cc1nc(C)c(C(=O)Nc2ccc(OC[C@H]3CCCCN3)c(-c3c(C)ncnc3C)c2)s1` [Compound 426, (R)—N-(3-(4,6-dimethylpyrimidin-5-yl)-4-(piperidin-2-ylmethoxy)phenyl)-2,4-dimethylthiazole-5-carboxamide]: the Ki was 0.0872 µM.

For the molecule `Cc1cnoc1C(=O)Nc1ccc(OC[C@H]2CCCCN2)c(-c2c(C)ncnc2C)c1` [Compound 427, (R)—N-(3-(4,6-dimethylpyrimidin-5-yl)-4-(piperidin-2-ylmethoxy)phenyl)-4-methylisoxazole-5-carboxamide], the Ki came out at 0.0272 µM.

With `Cc1ncoc1C(=O)Nc1ccc(OC[C@H]2CCCCN2)c(-c2c(C)ncnc2C)c1` [Compound 428, (R)—N-(3-(4,6-dimethylpyrimidin-5-yl)-4-(piperidin-2-ylmethoxy)phenyl)-4-methyloxazole-5-carboxamide], the inhibition constant (Ki) was 0.0353 µM.

Turning to `Cc1ncnc(C)c1-c1cc(NC(=O)c2cnoc2)ccc1OC[C@H]1CCCCN1` [Compound 429, (R)—N-(3-(4,6-dimethylpyrimidin-5-yl)-4-(piperidin-2-ylmethoxy)phenyl)isoxazole-4-carboxamide], the Ki was 0.131 µM.

Regarding `Cc1nocc1C(=O)Nc1ccc(OC[C@H]2CCCCN2)c(-c2c(C)ncnc2C)c1` [Compound 430, (R)—N-(3-(4,6-dimethylpyrimidin-5-yl)-4-(piperidin-2-ylmethoxy)phenyl)-3-methylisoxazole-4-carboxamide], the Ki is 0.0216 µM.

`Cc1ncnc(C)c1-c1cc(NC(=O)c2cnoc2C)ccc1OC[C@H]1CCCCN1` [Compound 431, (R)—N-(3-(4,6-dimethylpyrimidin-5-yl)-4-(piperidin-2-ylmethoxy)phenyl)-5-methylisoxazole-4-carboxamide]: the Ki came to 0.0549 µM.

Take `Cc1ncnc(C)c1-c1cc(NC(=O)c2ncoc2C)ccc1OC[C@H]1CCCCN1` [Compound 432, (R)—N-(3-(4,6-dimethylpyrimidin-5-yl)-4-(piperidin-2-ylmethoxy)phenyl)-5-methyloxazole-4-carboxamide]: the Ki amounted to 0.0191 µM.
